From patent US20230159453A1 (COCRYSTAL PHARMA, INC., priority 2020, published 2023)
Several values for one entry are separate records, joined by “and”; a condition that tells them apart may be missing. Identical values can stand only once.

What follows are compounds tested against SARS2 protease (Severe acute respiratory syndrome coronavirus 2, UniProt P0DTD1) (assay: SARS-CoV-2 protease inhibition assay (SARS2 FRET protease assay)). Settings: SARS-CoV-2 protease 25 nM, FRET, peptide substrate 1.3 μM, 30 minutes at 30° C., compounds 20 μM to 1.0 nM; read-out: IC50.
Assay type: biochemical

Point of comparison: `CCOP(=O)(OCC)C(O)C(CC1CC(Cc2ccccc2)NC1=O)NC(=O)[C@H](CC1CCCCC1)NC(=O)OCc1cccc(Cl)c1` (stereo partly drawn) [Compound C41, 3-Chlorobenzyl ((2S)-1-((3-(5-benzyl-2-oxopyrrolidin-3-yl)-1-(diethoxyphosphoryl)-1-hydroxypropan-2-yl)amino)-3-cyclohexyl-1-oxopropan-2-yl)carbamate], IC50 308 nM. Against it:
- CCOP(=O)(OCC)C(O)[C@H](CCC(=O)N1CCOc2ccccc2C1)NC(=O)[C@H](CC1CCCCC1)NC(=O)N(C)Cc1cccc(Cl)c1 (stereo partly drawn) [Compound C31, Diethyl ((2S)-2-((S)-2-(3-(3-chlorobenzyl)-3-methylureido)-3-cyclohexylpropanamido)-5-(2,3-dihydrobenzo[f][1,4]oxazepin-4(5H)-yl)-1-hydroxy-5-oxopentyl)phosphonate] — higher, > 200000 nM
- CC(=O)N1CCC2(CC1)CC(CC(C=O)NC(=O)[C@H](CC1CCCCC1)NC(=O)OCc1cccc(Cl)c1)C(=O)N2 (stereo partly drawn) [Compound C32, 3-Chlorobenzyl ((2S)-1-((1-(8-acetyl-2-oxo-1,8-diazaspiro[4.5]decan-3-yl)-3-oxopropan-2-yl)amino)-3-cyclohexyl-1-oxopropan-2-yl)carbamate] — 13-fold lower, 23 nM
- O=C[C@H](CCC(=O)NC1(Cc2ccccc2)CC1)NC(=O)[C@H](CC1CCCCC1)NC(=O)OCc1cccc(Cl)c1 [Compound C33, 3-Chlorobenzyl ((S)-1-(((S)-5-((1-benzylcyclopropyl)amino)-1,5-dioxopentan-2-yl)amino)-3-cyclohexyl-1-oxopropan-2-yl)carbamate] — higher, > 200000 nM
- CC(C)C[C@H](NC(=O)OC1CCN(C(=O)OC(C)(C)C)CC1)C(=O)N[C@H](C=O)C[C@@H]1CCNC1=O [Compound C34, Tert-butyl 4-((((S)-4-methyl-1-oxo-1-(((S)-1-oxo-3-((S)-2-oxopyrrolidin-3-yl)propan-2-yl)amino)pentan-2-yl)carbamoyl)oxy) piperidine-1-carboxylate] — 3.1-fold lower, 100 nM
- CN(Cc1cccc(Cl)c1)C(=O)N[C@@H](CC1CCCCC1)C(=O)N[C@H](C=O)CCC(=O)N1CCOc2ccccc2C1 [Compound C35, (S)-2-(3-(3-Chlorobenzyl)-3-methylureido)-3-cyclohexyl-N—((S)-5-(2,3-dihydrobenzo[f][1,4]oxazepin-4(5H)-yl)-1,5-dioxopentan-2-yl)propanamide] — 61-fold higher, 18900 nM
- CCOP(=O)(OCC)C(O)[C@H](CC1CCNC1=O)NC(=O)[C@H](Cc1ccccc1)NC(=O)OCc1cccc(Cl)c1 (some centres unmarked) [Compound C36] — 8.1-fold higher, 2500 nM
- CC(C)C[C@H](NC(=O)OC(Cc1ccccc1)c1ccccc1)C(=O)N[C@H](C=O)C[C@@H]1CCNC1=O (stereo partly drawn) [Compound C38, 1,2-Diphenylethyl ((S)-4-methyl-1-oxo-1-(((S)-1-oxo-3-((S)-2-oxopyrrolidin-3-yl)propan-2-yl)amino)pentan-2-yl)carbamate] — 19-fold lower, 16 nM
- CC(C)C[C@H](NC(=O)OC(C)Cc1ccccc1)C(=O)N[C@H](C=O)C[C@@H]1CCNC1=O (stereo partly drawn) [Compound C39, 1-Phenylpropan-2-yl ((S)-4-methyl-1-oxo-1-(((S)-1-oxo-3-((S)-2-oxopyrrolidin-3-yl)propan-2-yl)amino)pentan-2-yl)carbamate] — 2-fold lower, 153 nM
- COc1cccc(CC2(OC(=O)N[C@@H](CC(C)C)C(=O)N[C@H](C=O)C[C@@H]3CCNC3=O)CC2)c1 [Compound C42, 1-(3-Methoxybenzyl)cyclopropyl ((S)-4-methyl-1-oxo-1-(((S)-1-oxo-3-((S)-2-oxopyrrolidin-3-yl)propan-2-yl)amino)pentan-2-yl)carbamate] — within 1.5-fold, 356 nM
- CC(C)C[C@H](NC(=O)OC1CCCC1Cc1ccccc1)C(=O)N[C@H](C=O)C[C@@H]1CCNC1=O (stereo partly drawn) [Compound C43, 2-benzylcyclopentyl ((S)-4-methyl-1-oxo-1-(((S)-1-oxo-3-((S)-2-oxopyrrolidin-3-yl)propan-2-yl)amino)pentan-2-yl) carbamate] — 5.5-fold lower, 56 nM
- CC(C)C[C@H](NC(=O)OC1(Cc2ccccc2)CC1)C(=O)N[C@H](C=O)C[C@@H]1CCNC1=O [Compound C44, 1-Benzylcyclopropyl ((S)-4-methyl-1-oxo-1-(((S)-1-oxo-3-((S)-2-oxopyrrolidin-3-yl)propan-2-yl)amino)pentan-2-yl) carbamate] — within 1.5-fold, 331 nM
- CC(C)C[C@H](NC(=O)OC1(Cc2cccc(Cl)c2)CC1)C(=O)N[C@H](C=O)C[C@@H]1CCNC1=O [Compound C45, 1-(3-Chlorobenzyl) cyclopropyl ((S)-4-methyl-1-oxo-1-(((S)-1-oxo-3-((S)-2-oxopyrrolidin-3-yl)propan-2-yl)amino)pentan-2-yl)carbamate] — within 1.5-fold, 304 nM
- CC(C)C[C@H](NC(=O)OC(C)(C)Cc1ccccc1)C(=O)N[C@H](C=O)C[C@@H]1CCNC1=O [Compound C46, 2-Methyl-1-phenylpropan-2-yl ((S)-4-methyl-1-oxo-1-(((S)-1-oxo-3-((S)-2-oxopyrrolidin-3-yl)propan-2-yl)amino)pentan-2-yl) carbamate] — 4.5-fold higher, 1380 nM
- CC(C)C[C@H](NC(=O)OC1(Cc2ccccc2)CC1)C(=O)N[C@@H](C[C@@H]1CCNC1=O)C(O)S(=O)(=O)O (stereo partly drawn) [Compound C48, (2S)-2-((S)-2-(((1-Benzylcyclopropoxy)carbonyl)amino)-4-methylpentanamido)-1-hydroxy-3-((S)-2-oxopyrrolidin-3-yl) propane-1-sulfonate] — within 1.5-fold, 241 nM
- COc1cccc(CC2(OC(=O)N[C@@H](CC(C)C)C(=O)N[C@@H](C[C@@H]3CCNC3=O)C(O)S(=O)(=O)O)CC2)c1 (stereo partly drawn) [Compound C49, (2S)-1-Hydroxy-2-((S)-2-(((1-(3-methoxybenzyl)cyclopropoxy)carbonyl)amino)-4-methylpentanamido)-3-((S)-2-oxopyrrolidin-3-yl)propane-1-sulfonate] — within 1.5-fold, 266 nM
- CC(C)C[C@H](NC(=O)OC(C)Cc1ccccc1)C(=O)N[C@@H](C[C@@H]1CCNC1=O)C(O)S(=O)(=O)O (stereo partly drawn) [Compound C50, (2S)-1-Hydroxy-2-((2S)-4-methyl-2-((((1-phenylpropan-2-yl)oxy)carbonyl)amino)pentanamido)-3-((S)-2-oxopyrrolidin-3-yl)propane-1-sulfonate] — 2.6-fold lower, 119 nM
- CC(C)C[C@H](NC(=O)OC1CCN(C(=O)OC(C)(C)C)CC1)C(=O)N[C@@H](C[C@@H]1CCNC1=O)C(O)S(=O)(=O)O (stereo partly drawn) [Compound C51, (2S)-2-((S)-2-((((1-(tert-butoxycarbonyl)piperidin-4-yl)oxy)carbonyl)amino)-4-methylpentanamido)-1-hydroxy-3-((S)-2-oxopyrrolidin-3-yl) propane-1-sulfonate] — 2.7-fold lower, 115 nM

For `CC(C)C[C@H](NC(=O)N(Cc1ccccc1)C1CCN(C(=O)OC(C)(C)C)CC1)C(=O)N[C@H](C=O)C[C@@H]1CCNC1=O` [Compound C37, Tert-butyl 4-(1-benzyl-3-((S)-4-methyl-1-oxo-1-(((S)-1-oxo-3-((S)-2-oxopyrrolidin-3-yl)propan-2-yl)amino)pentan-2-yl)ureido)piperidine-1-carboxylate], the IC50 was 137 nM and 262 nM.
With `CC(C)C[C@H](NC(=O)N(Cc1ccccc1)C1CCN(C(=O)OC(C)(C)C)CC1)C(=O)N[C@@H](C[C@@H]1CCNC1=O)C(O)S(=O)(=O)O` (stereo partly drawn) [Compound C40, (2S)-2-((S)-2-(3-benzyl-3-(1-(tert-butoxycarbonyl)piperidin-4-yl)ureido)-4-methylpentanamido)-1-hydroxy-3-((S)-2-oxopyrrolidin-3-yl)propane-1-sulfonate] the IC50 was 173 nM and 221 nM.
